Assay results: patent US8288549B2, “Glycine B antagonist” (Merz Pharma GmbH & Co. KGaA, priority 2008, dated 2012)
Structures can show the parent of a compound that is named as a salt.

Legend:
[1] = target: T1, NMDA receptor glycine B site (Rattus norvegicus, UniProt P35439); assay: Whole cell patch-clamp recordings in cultured rat hippocampal neurons (NMDA/D-Serine evoked currents); assay type: cell-based; details: NMDA (200 μM) and D-Serine (1 μM), holding potential −70 mV, read-out: NMDA-PC-r-HIC-NAM - IC50
T1 construct: Hippocampi are then isolated from the brains of at least 8 embryos after decapitation; endogenous in cells; host or cells: primary cultured hippocampal neurons from E20 Sprague-Dawley rat embryos, 11-15 DIV
Procedure: Antagonistic potencies of the test compounds are functionally evaluated using electrophysiological whole cell patch-clamp recordings and/or fluorometric intracellular Ca^2+-imaging (FLIPR) screens.
Cell preparation is performed as described by Parsons, et al. (Neuropharmacology, 1998, 37(6), 719-727). The female Sprague-Dawley rat is anaesthetised by placing in a saturated CO2-euthanasia chamber under further quiet CO2-influx. Under these conditions the rat loses consciousness after a few seconds and is then sacrificed by cervical dislocation. After opening the abdominal cavity, embryos (E20) are removed and stored in ice cold Ca^2+- and Mg^2+-free Hank's Buffered Salt Solution (pH 7.3), containing 4 g/l glucose (HBSS-CMF). Hippocampi are then isolated from the brains of at least 8 embryos after decapitation, transferred into ice cold HBSS-CMF and washed 3 to 4 times.
Hippocampi are pre-incubated for 8 min with a 0.66% trypsin (Sigma-Aldrich) and 0.1% (20 U/ml) DNAase solution (Sigma-Aldrich) in Ca^2+-free Phosphate Buffered Saline (PBS-CF) and washed 3 times with HBSS-CMF. Cells are then mechanically dissociated by trituration in a PBS-CF solution containing 0.05% (10 U/ml) DNAase and 0.3% of the trypsin inhibitor ovomucoid (all from Sigma-Aldrich). The cells are then centrifuged at 180×g for 10 minutes, and the cell pellet re-suspended in basal Minimum essential medium (MEM, Invitrogen, Karlsruhe, Germany), again carefully triturated to ensure maximal dissociation and finally plated in the flexiPERM inserts (Thermo Fisher Scientific, Langenselbold, Germany) at a density of 15×10^3 cells/cm^2 (0.5 ml/insert) onto poly-DL-ornithine (Sigma) and mouse laminin (Invitrogen) pre-coated plastic petri dishes. After 1 hour the cells become attached to the bottom of the dish and the inserts may be removed. The cells are then nourished with 2 ml MEM supplemented with 5% foetal calf serum (FCS) and 5% horse serum and incubated at 37° C. with 95% air and 5% CO2 at 95% humidity. After 4 days in vitro (DIV) further glial mitosis is inhibited by adding 10 μl of AraC (5 μM endconcentration). The medium is completely exchanged after an additional 2 DIV and again, but only partly (50%), after 8 DIV. The cells are used for electrophysiological recordings after 11-15 DIV.
Cells are visualised using an inverted microscope and selected for patching based upon their position and morphology. Voltage clamp recordings are made in the whole cell configuration of the patch clamp technique at a holding potential of −70 mV with the aid of an EPC-10 amplifier in combination with pipette manipulator. Patch clamp pipettes are pulled from borosilicate glass using a horizontal puller (P-97 Puller, Sutter Instruments, USA) and, when filled with intracellular solution, have resistances of 1-4 MΩ.
Solutions are delivered via a home-made gravity driven very fast perfusion system (<10 ms) including valves to switch flow on and off in combination with a stepper motor-driven double-barreled theta glass application pipette in order to expose cells to either agonist-free or agonist-containing solutions in presence or absence of antagonist.
The intracellular solution used consists of: 120 mM CsCl, 10 mM EGTA, 1 mM MgCl2, 200 μM CaCl2, 10 mM glucose and 22 mM tetraethyl ammonium chloride (TEA-CL). The corresponding extracellular bath solution contains: 140 mM NaCl, 3 mM KCl, 10 mM glucose, 10 mM HEPES, 1.5 mM CaCl2 and 4.5 mM sucrose (all from Sigma-Aldrich) pH 7.3, and is supplemented with 0.3 μM tetrodotoxin (TTX, Tocris, Bristol, U.K.) to block voltage-activated sodium channels and 0.25 μM bicuculline (Sigma-Aldrich) to block GABAA receptors. […]

| melting point | IC50 [1] | Structure (SMILES) |
| --- | --- | --- |
| 174 to 182 °C |  | Br.Br.NCCCC[C@H](Nc1nc2ccc(Cl)cc2cc1C(=O)O)C(=O)O |
| > 250 °C |  | Nc1cc(C[C@H](Nc2nc3ccc(Cl)cc3cc2C(=O)O)C(=O)O)ccc1O |
| 150 to 175 °C (dec.) |  | O=C(O)c1cc2cc(Cl)ccc2nc1N[C@@H](Cc1ccc(O)c(Cl)c1)C(=O)O |
| > 180 °C (dec.) |  | O=C(O)c1ccc(CC(Nc2nc3ccc(Cl)cc3cc2C(=O)O)C(=O)O)cc1 (stereo not drawn) |
| > 250 °C (dec.) |  | Nc1ccc(CC(Nc2nc3ccc(Cl)cc3cc2C(=O)O)C(=O)O)cc1 (stereo not drawn) |
| 165 to 170 °C (dec.) |  | COc1cccc(CC(Nc2nc3ccc(Cl)cc3cc2C(=O)O)C(=O)O)c1 (stereo not drawn) |
| > 180 °C (dec.) |  | COc1ccccc1CC(Nc1nc2ccc(Cl)cc2cc1C(=O)O)C(=O)O (stereo not drawn) |
| > 250 °C (dec.) |  | O=C(O)c1cccc(CC(Nc2nc3ccc(Cl)cc3cc2C(=O)O)C(=O)O)c1 (stereo not drawn) |
| 177 to 181 °C |  | O=C(O)c1cc2cc(Cl)ccc2nc1NC(Cc1cccc(F)c1)C(=O)O (stereo not drawn) |
| > 170 °C (dec.) |  | O=C(O)c1cc2cc(Cl)ccc2nc1NC(Cc1cccnc1)C(=O)O (stereo not drawn) |
| > 166 °C (dec.) |  | O=C(O)c1cc2cc(Cl)ccc2nc1N[C@@H](Cc1ccc(Oc2ncccc2C(=O)O)cc1)C(=O)O (as salt: salt) [Example 100, 2-{(S)-1-Carboxy-2-[4-(3-carboxy-pyridin-2-yloxy)-phenyl]-ethylamino}-6-chloro-quinoline-3-carboxylic acid] |
|  | 0.534 µM | O=C(O)c1cc2cc(Cl)ccc2nc1N[C@H](Cc1ccccc1)C(=O)O [Example 6, 2-((R)-1-Carboxy-2-phenyl-ethylamino)-6-chloro-quinoline-3-carboxylic acid] |
|  | 1.36 µM | Cn1cc(C[C@H](Nc2nc3ccc(Cl)cc3cc2C(=O)O)C(=O)O)c2ccccc21 [Example 15, 2-[(S)-1-Carboxy-2-(1-methyl-1H-indol-3-yl)-ethylamino]-6-chloro-quinoline-3-carboxylic acid] |
|  | 0.898 µM | O=C(O)c1cc2cc(Cl)ccc2nc1N[C@@H](Cc1ccc(Cl)cc1)C(=O)O [Example 23, 2-[(S)-1-Carboxy-2-(4-chloro-phenyl)-ethylamino]-6-chloro-quinoline-3-carboxylic acid] |
| 179 to 182 °C (dec.) |  | O=C(O)c1cc2cc(Cl)ccc2nc1NC(CCc1ccccc1)C(=O)O (stereo not drawn) [Example 28, 2-(1-Carboxy-3-phenyl-propylamino)-6-chloro-quinoline-3-carboxylic acid] |
|  | 1.67 µM | O=C(O)c1cc2cc(Cl)ccc2nc1N[C@@H](Cc1ccc(O)cc1)C(=O)O [Example 34, 2-[(S)-1-Carboxy-2-(4-hydroxy-phenyl)-ethylamino]-6-chloro-quinoline-3-carboxylic acid] |
|  | 1.15 µM | O=C(O)c1cc2cc(Cl)c(Cl)cc2nc1N[C@H](Cc1c[nH]c2ccccc12)C(=O)O [Example 36, 2-[(R)-1-Carboxy-2-(1H-indol-3-yl)-ethylamino]-6,7-dichloro-quinoline-3-carboxylic acid] |

| melting point | IC50 [1] | Structure (SMILES) |
| --- | --- | --- |
| 140 to 141.5 °C |  | O=C(O)c1cc2ccccc2nc1N[C@H](Cc1ccccc1)C(=O)O [Example 44, 2-((R)-1-Carboxy-2-phenyl-ethylamino)-quinoline-3-carboxylic acid] |
| > 160 °C (dec.) |  | O=C(O)c1cc2cc(Cl)ccc2nc1NC(Cc1ccc(O)c(F)c1)C(=O)O (stereo not drawn) [Example 52, 2-[1-Carboxy-2-(3-fluoro-4-hydroxy-phenyl)-ethylamino]-6-chloro-quinoline-3-carboxylic acid] |
| > 200 °C (dec.) |  | Cc1cc(C)n(CC(Nc2nc3ccc(Cl)cc3cc2C(=O)O)C(=O)O)n1 (stereo not drawn) [Example 57, 2-[1-Carboxy-2-(3,5-dimethyl-pyrazol-1-yl)-ethylamino]-6-chloro-quinoline-3-carboxylic acid] |
| 164 to 173 °C |  | O=C(O)c1cc2cc(Cl)ccc2nc1NC(Cc1ccc(C#Cc2ccccc2)cc1)C(=O)O (stereo not drawn) [Example 62, 2-[1-Carboxy-2-(4-phenylethynyl-phenyl)-ethylamino]-6-chloro-quinoline-3-carboxylic acid] |
| 180 to 185 °C |  | COc1ccc(Cl)c(CC(Nc2nc3ccc(Cl)cc3cc2C(=O)O)C(=O)O)c1 (stereo not drawn) [Example 68, 2-[1-Carboxy-2-(2-chloro-5-methoxy-phenyl)-ethylamino]-6-chloro-quinoline-3-carboxylic acid] |
| 186 to 197 °C (dec.) |  | O=C(O)c1cc2cc(Cl)ccc2nc1NC(Cc1cccc(Oc2nc3ccc(Cl)cc3cc2C(=O)O)c1)C(=O)O (stereo not drawn) [Example 81, 2-{2-[3-(3-carboxy-6-chloro-quinolin-2-yloxy)-phenyl]-1-carboxy-ethylamino}-6-chloro-quinoline-3-carboxylic acid] |
| > 185 °C (dec.) |  | O=C(O)c1cc2cc(Cl)ccc2nc1NC(Cc1cccc(CC(Nc2nc3ccc(Cl)cc3cc2C(=O)O)C(=O)O)c1)C(=O)O (stereo not drawn) [Example 82, 2-{2-[3-[2-(3-Carboxy-6-chloro-quinolin-2-yl)amino-2-carboxy-ethyl]-phenyl]-1-carboxy-ethylamino}-6-chloro-quinoline-3-carboxylic acid] |
| > 250 °C (dec.) |  | O=C(O)c1cc2cc(Cl)ccc2nc1NC(Cc1cccs1)C(=O)O (stereo not drawn) [Example 83, 2-(1-Carboxy-2-thiophen-2-yl-ethylamino)-6-chloro-quinoline-3-carboxylic acid] |
| 136 °C |  | O=C(O)c1cc2cc(Cl)ccc2nc1NC(Cc1ccc(Oc2ccc3ccccc3n2)cc1)C(=O)O (stereo not drawn) [Example 96, 2-{1-Carboxy-2-[4-(quinolin-2-yloxy)-phenyl]-ethylamino}-6-chloro-quinoline-3-carboxylic acid] |
|  | 0.56 µM | O=C(O)c1cc2cc(Cl)ccc2nc1NC(Cc1ccc(Nc2ccc3ccccc3n2)cc1)C(=O)O (stereo not drawn) [Example 108, 2-{1-Carboxy-2-[4-(quinolin-2-ylamino)-phenyl]-ethylamino}-6-chloro-quinoline-3-carboxylic acid] |
|  | 0.38 µM | O=C(O)c1cc2cc(Cl)ccc2nc1NC(Cc1ccc(Oc2nc3ccccc3cc2C(=O)O)cc1)C(=O)O (stereo not drawn) [Example 110, 2-{1-Carboxy-2-[4-(3-carboxy-quinolin-2-yloxy)-phenyl]-ethylamino}-6-chloro-quinoline-3-carboxylic acid] |
|  | 0.72 µM | O=C(O)C[C@H](Nc1nc2ccc(Cl)cc2cc1C(=O)O)C(=O)O [Example 114, (S)-2-(3-Carboxy-6-chloro-quinolin-2-ylamino)-succinic acid ammonia hydrate] |
|  | 0.51 µM | O=C(O)c1cc2cc(Cl)cc(Cl)c2nc1NC(Cc1cccc(F)c1)C(=O)O (stereo not drawn) [Example 115, 2-[1-Carboxy-2-(3-fluoro-phenyl)-ethylamino]-6,8-dichloro-quinoline-3-carboxylic acid] |
| 150 to 151 °C |  | O=C(O)c1cc2cc(Cl)ccc2nc1NC(COCc1ccccc1)C(=O)Nc1ccccc1 (stereo not drawn) [Example 117, 2-(2-Benzyloxy-1-phenylcarbamoyl-ethylamino)-6-chloro-quinoline-3-carboxylic acid] |
|  | 0.19 µM | O=C(O)c1cc2cc(Cl)ccc2nc1N[C@@H](Cc1ccc(Oc2ccc3c(-c4ccccc4)nccc3n2)cc1)C(=O)O [Example 130, 2-{(S)-1-Carboxy-2-[4-(5-phenyl-[1,6]naphthyridin-2-yloxy)-phenyl]-ethylamino}-6-chloro-quinoline-3-carboxylic acid] |
| 230 to 250 °C (dec.) |  | O=C(O)c1cc2cc(Cl)ccc2nc1NC(C(=O)O)C(C(=O)O)c1cc(F)cc(F)c1 (stereo not drawn) [Example 136, 2-(3-Carboxy-6-chloro-quinolin-2-ylamino)-3-(3,5-difluoro-phenyl)-succinic acid] |
